The experiment deals with human mGluR2 (Homo sapiens (Human), UniProt Q14416). Description: MGluR2 cAMP assay. To be noted: HEK293 cells clonally expressing human mGluR2, 1 μM forskolin, 1 μM LY-341495. Format: cell-based. On the procedure: Clonally expressed human mGluR2 in HEK293 background was glutamate starved overnight in media without glutamine (GIBCO MEM 12360), containing 10% FBS, 1% penicillin streptomycin.
On the day of the assay, media was removed, cells washed with PBS, cells harvested and pelleted by centrifugation. Cell pellets were resuspended in stimulation buffer without forskolin and counted. A solution of 1.25×10^6 cells/ml was prepared and dispensed to plates using a Combi liquid handler (Thermo). A standard curve was created using a top concentration of cAMP of 1 μM in the stimulation buffer, 1:3 dilutions over 14 points in the absence of cells. Plates were read by time-resolved fluorescence at […] and a ratio was calculated via in house software, (665 nM/618 nM)*10^4. In house software converted the fluorescence value ratios to units of cAMP concentration, which is then used to calculate % inhibition for each test compound.
Compounds were added to white, standard volume 384 non-binding surface plates (Corning 3574). Cells were resuspended in stimulation buffer consisting of Hanks Balanced Salt Solution (14175-095) pH 7.0, 20 mM HEPES, 2.0 mM CaCl2, 5.0 mM MgCl2, and 1 mM IBMX (Sigma 15879), 1 μM forskolin, and 1 μM LY-341495, for 30 minutes. Buffer without forskolin was used as a negative control. Solutions of D2 and cryptate detection reagents from the CISBIO dynamic cAMP kit (62AM4PEJ) were diluted 1:40 in lysis buffer. Lysis buffer consisted of 50 mM Phosphate Buffer pH 7.0, 800 mM Potassium Fluoride, 0.2% BSA, and 1.0% Triton. Assay reaction was terminated by addition of detection reagents in lysis buffer. One hour later, plates were read on a PE Viewlux. Data was extracted, and concentration response curves generated by fitting the data to a standard 4 parameter logistic equation from which EC50 values were determined See table 1: A: <10 nM; B: 10-100 nM; C: 100-1000 nM; D: 1000-10000 nM.
(In general: Cyclic AMP is a second messenger, typically raised through Gs and lowered through Gi signalling.)

This note sets out measurements from US9682980B2, “Positive allosteric modulators of mGluR2” (BRISTOL-MYERS SQUIBB COMPANY, priority 2012, dated 2017).

Molecules are shown by their SMILES.

Chain of human mGluR2 (Q14416 19-872): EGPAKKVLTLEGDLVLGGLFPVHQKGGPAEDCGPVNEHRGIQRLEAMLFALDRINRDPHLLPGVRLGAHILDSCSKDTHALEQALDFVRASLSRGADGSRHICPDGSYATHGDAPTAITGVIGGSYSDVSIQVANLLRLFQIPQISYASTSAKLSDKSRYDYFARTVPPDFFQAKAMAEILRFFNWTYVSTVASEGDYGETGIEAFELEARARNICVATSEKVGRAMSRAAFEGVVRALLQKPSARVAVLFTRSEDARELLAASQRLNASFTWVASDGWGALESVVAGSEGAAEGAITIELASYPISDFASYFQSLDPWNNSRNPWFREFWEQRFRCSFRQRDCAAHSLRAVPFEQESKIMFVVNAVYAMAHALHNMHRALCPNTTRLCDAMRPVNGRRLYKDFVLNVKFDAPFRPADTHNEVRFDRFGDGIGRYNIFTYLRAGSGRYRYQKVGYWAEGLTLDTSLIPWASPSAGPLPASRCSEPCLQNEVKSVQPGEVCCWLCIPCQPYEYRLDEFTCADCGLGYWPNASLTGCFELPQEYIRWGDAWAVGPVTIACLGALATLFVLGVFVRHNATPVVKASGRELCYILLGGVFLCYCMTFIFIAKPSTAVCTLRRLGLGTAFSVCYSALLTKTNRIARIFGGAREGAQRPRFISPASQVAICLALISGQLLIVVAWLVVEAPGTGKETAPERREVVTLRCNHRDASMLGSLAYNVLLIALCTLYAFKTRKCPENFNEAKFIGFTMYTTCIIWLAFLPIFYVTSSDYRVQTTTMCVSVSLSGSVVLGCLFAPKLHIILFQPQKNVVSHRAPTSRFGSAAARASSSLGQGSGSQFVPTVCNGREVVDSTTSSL

In general, EC50 refers to the concentration at which the effect is half-maximal. Take `Fc1cc(F)c(OC(F)F)c(C2CCN(c3cnn4c(CC(F)(F)F)nnc4c3Cl)CC2)c1` [Example 55, 8-Chloro-7-(4-(2-(difluoromethoxy)-3,5-difluorophenyl)piperidin-1-yl)-3-(2,2,2-trifluoroethyl)-[1,2,4]triazolo[4,3-b]pyridazine]: a half-maximal effect (EC50) was put at 21 nM. In the case of `FC(F)(F)Cc1nnc2c(Cl)c(N3CCC(c4ccccc4)CC3)cnn12` [Example 56, 8-Chloro-7-(4-phenylpiperidin-1-yl)-3-(2,2,2-trifluoroethyl)-[1,2,4]triazolo[4,3-b]pyridazine], it took 62 nM to reach a half-maximal effect (EC50). Regarding `Clc1c(N2CCC(c3ccccc3)CC2)cnn2c(Cc3ccccc3)nnc12` [Example 57, 3-Benzyl-8-chloro-7-(4-phenylpiperidin-1-yl)-[1,2,4]triazolo[4,3-b]pyridazine], it took 217 nM to reach a half-maximal effect (EC50). In turn, `CC(C)Cc1nnc2c(Cl)c(N3CCC(c4ccccc4)CC3)cnn12` [Example 58, 8-Chloro-3-isobutyl-7-(4-phenylpiperidin-1-yl)-[1,2,4]triazolo[4,3-b]pyridazine] gave a 50% effective concentration (EC50) of 201 nM. Then `Clc1c(N2CCC(c3ccccc3)CC2)cnn2c(CCC3CC3)nnc12` [Example 59, 8-Chloro-3-(2-cyclopropylethyl)-7-(4-phenylpiperidin-1-yl)-[1,2,4]triazolo[4,3-b]pyridazine], with 121 nM; and `FC(F)(F)Cc1nnc2c(Cl)c(N3CCC(c4cccc(Cl)c4Cl)CC3)cnn12` [Example 60, 8-Chloro-7-(4-(2,3-dichlorophenyl)piperidin-1-yl)-3-(2,2,2-trifluoroethyl)-[1,2,4]triazolo[4,3-b]pyridazine], with 94 nM. `Clc1c(NC2CCC(c3ccccc3)CC2)cnn2c(CC3CC3)nnc12` (stereo not drawn) [Example 61, 8-Chloro-3-(cyclopropylmethyl)-N-(4-phenylcyclohexyl)-[1,2,4]triazolo[4,3-b]pyridazin-7-amine]: the concentration for a half-maximal effect (EC50) was found to be 225 nM. Next, `O=C1Oc2ccccc2C12CCN(c1cnn3c(CC4CC4)nnc3c1Cl)CC2` [Example 62, 1′-(8-Chloro-3-(cyclopropylmethyl)-[1,2,4]triazolo[4,3-b]pyridazin-7-yl)-2H-spiro[benzofuran-3,4′-piperidin]-2-one]: 47 nM; `O=C1Oc2ccccc2C12CCN(c1cnn3c(CC(F)(F)F)nnc3c1Cl)CC2` [Example 63, 1′-(8-Chloro-3-(2,2,2-trifluoroethyl)-[1,2,4]triazolo[4,3-b]pyridazin-7-yl)-2H-spiro[benzofuran-3,4′-piperidin]-2-one]: 185 nM; `FC(F)(F)Cc1nnc2c(Cl)c(NC3CCC(c4ccccc4)CC3)cnn12` (stereo not drawn) [Example 64, 8-Chloro-N-(4-phenylcyclohexyl)-3-(2,2,2-trifluoroethyl)-[1,2,4]triazolo[4,3-b]pyridazin-7-amine]: 733 nM. As to `FC(F)(F)c1ccccc1C1CCN(c2cnn3c(CC4CC4)nnc3c2Cl)CC1` [Example 65, 8-Chloro-3-(cyclopropylmethyl)-7-(4-(2-(trifluoromethyl)phenyl)piperidin-1-yl)-[1,2,4]triazolo[4,3-b]pyridazine], the EC50 came to 36 nM. Next, `FC(F)(F)Cc1nnc2c(Cl)c(N3CCC(c4ccccc4C(F)(F)F)CC3)cnn12` [Example 66, 8-Chloro-3-(2,2,2-trifluoroethyl)-7-(4-(2-(trifluoromethyl)phenyl)piperidin-1-yl)-[1,2,4]triazolo[4,3-b]pyridazine]: 23 nM; `Fc1ccccc1C1CCN(c2ncn3c(CC(F)(F)F)nnc3c2Cl)CC1` [Example 67, 8-Chloro-7-(4-(2-fluorophenyl)piperidin-1-yl)-3-(2,2,2-trifluoroethyl)-[1,2,4]triazolo[4,3-c]pyrimidine]: 5 nM; `Fc1ccccc1C1CCN(c2ncn3c(CC4CC4)nnc3c2Cl)CC1` [Example 68, 8-Chloro-3-(cyclopropylmethyl)-7-(4-(2-fluorophenyl)piperidin-1-yl)-[1,2,4]triazolo[4,3-c]pyrimidine]: 4 nM.

Take `Fc1ccc(C2CCN(c3ncn4c(CC(F)(F)F)nnc4c3Cl)CC2)cc1` [Example 69, 8-Chloro-7-(4-(4-fluorophenyl)piperidin-1-yl)-3-(2,2,2-trifluoroethyl)-[1,2,4]triazolo[4,3-c]pyrimidine]: the concentration for a half-maximal effect (EC50) came out at 438 nM. `COc1cccc(F)c1C1CCN(c2cnn3c(CC4CC4)nnc3c2C(F)(F)F)CC1` [Example 70, 3-(Cyclopropylmethyl)-7-(4-(2-fluoro-6-methoxyphenyl)piperidin-1-yl)-8-(trifluoromethyl)-[1,2,4]triazolo[4,3-b]pyridazine] returned a 50% effective concentration (EC50) of 3 nM. Next, `COc1cccc(F)c1C1CCN(c2cnn3c(CC4CC4)nnc3c2C(F)(F)F)CC1` [Example 71, 3-(Cyclopropylmethyl)-7-(4-(2-fluoro-6-methoxyphenyl)piperidin-1-yl)-8-(trifluoromethyl)-[1,2,4]triazolo[4,3-b]pyridazine]: 4 nM.

Compound `N#Cc1ccccc1C1CCN(c2cnn3c(CC4CC4)nnc3c2Cl)CC1` [Example 72, 2-(1-(8-Chloro-3-(cyclopropylmethyl)-[1,2,4]triazolo[4,3-b]pyridazin-7-yl)piperidin-4-yl)benzonitrile] returned an EC50 of 15 nM.

Take `N#Cc1ccccc1C1CCN(c2cnn3c(CC(F)(F)F)nnc3c2Cl)CC1` [Example 73, 2-(1-(8-chloro-3-(2,2,2-trifluoroethyl)-[1,2,4]triazolo[4,3-b]pyridazin-7-yl)piperidin-4-yl)benzonitrile]: the EC50 came out at 18 nM. `Fc1ccc(C2CCN(c3cnn4c(CC5CC5)nnc4c3Cl)CC2)c(F)c1` [Example 74, 8-Chloro-3-(cyclopropylmethyl)-7-(4-(2,4-difluorophenyl)piperidin-1-yl)-[1,2,4]triazolo[4,3-b]pyridazine] gave an EC50 of 14 nM. Next, `Fc1ccc(C2CCN(c3cnn4c(CC(F)(F)F)nnc4c3Cl)CC2)c(F)c1` [Example 75, 8-Chloro-7-(4-(2,4-difluorophenyl)piperidin-1-yl)-3-(2,2,2-trifluoroethyl)-[1,2,4]triazolo[4,3-b]pyridazine]: 16 nM; `FC(F)(F)c1cccnc1C1CCN(c2cnn3c(CC4CC4)nnc3c2Cl)CC1` [Example 76, 8-Chloro-3-(cyclopropylmethyl)-7-(4-(3-(trifluoromethyl)pyridin-2-yl)piperidin-1-yl)-[1,2,4]triazolo[4,3-b]pyridazine]: 34 nM.

`N#Cc1ccccc1C1CCN(c2cnn3c(CC4CC4)nnc3c2C(F)(F)F)CC1` [Example 77, 2-(1-(3-(Cyclopropylmethyl)-8-(trifluoromethyl)-[1,2,4]triazolo[4,3-b]pyridazin-7-yl)piperidin-4-yl)benzonitrile]: it took 4 nM to reach a half-maximal effect (EC50). Next, `N#Cc1ccccc1C1CCN(c2cnn3c(CC(F)(F)F)nnc3c2C(F)(F)F)CC1` [Example 78, 2-(1-(3-(2,2,2-Trifluoroethyl)-8-(trifluoromethyl)-[1,2,4]triazolo[4,3-b]pyridazin-7-yl)piperidin-4-yl)benzonitrile]: 7 nM; `Clc1c(N2CCC(c3ccccn3)CC2)cnn2c(CC3CC3)nnc12` [Example 79, 8-Chloro-3-(cyclopropylmethyl)-7-(4-(pyridin-2-yl)piperidin-1-yl)-[1,2,4]triazolo[4,3-b]pyridazine]: 382 nM.

The compound `COc1c(F)ccc(F)c1C1CCN(c2cnn3c(CC4CC4)nnc3c2C(F)(F)F)CC1` [Example 80, 3-(Cyclopropylmethyl)-7-(4-(3,6-difluoro-2-methoxyphenyl)piperidin-1-yl)-8-(trifluoromethyl)-[1,2,4]triazolo[4,3-b]pyridazine] registered an EC50 of 0.2 nM. `COc1c(F)ccc(F)c1C1CCN(c2cnn3c(CC(F)(F)F)nnc3c2C(F)(F)F)CC1` [Example 81, 7-(4-(3,6-Difluoro-2-methoxyphenyl)piperidin-1-yl)-3-(2,2,2-trifluoroethyl)-8-(trifluoromethyl)-[1,2,4]triazolo[4,3-b]pyridazine]: the EC50 was 0.4 nM. Regarding `Clc1c(N2CCC(c3cccnc3)CC2)cnn2c(CC3CC3)nnc12` [Example 82, 8-Chloro-3-(cyclopropylmethyl)-7-(4-(pyridin-3-yl)piperidin-1-yl)-[1,2,4]triazolo[4,3-b]pyridazine], the concentration giving a half-maximal response (EC50) came to 809 nM. `COc1cccnc1C1CCN(c2cnn3c(CC(F)(F)F)nnc3c2Cl)CC1` [Example 83, 8-Chloro-7-(4-(3-methoxypyridin-2-yl)piperidin-1-yl)-3-(2,2,2-trifluoroethyl)-[1,2,4]triazolo[4,3-b]pyridazine] had a concentration for a half-maximal effect (EC50) of 42 nM. `Fc1ccccc1C1CCN(c2cnn3c(CC4CC4)nnc3c2C(F)(F)F)CC1` [Example 84, 3-(Cyclopropylmethyl)-7-(4-(2-fluorophenyl)piperidin-1-yl)-8-(trifluoromethyl)-[1,2,4]triazolo[4,3-b]pyridazine] gave an EC50 of 4 nM.
